Results on 2 compounds are retold here after article PMC12311865, “In Vitro Evaluation of the Potential Interactions of Zearalenone-14-sulfate and Zearalenone-14-glucuronide with Human Cytochrome P450 Enzymes, Organic Anion Transporting Polypeptides, and ATP-Binding Cassette Multidrug Transporters” (ACS Omega, 2025).

The target of one series is T1, CYP2C9 (Homo sapiens, UniProt P11712).
T1 construct: purchased Merck
The experiment in a line: in vitro. The series is classed as biochemical. Particulars: diclofenac 5 μM, 120 min. As to the method: Inhibitory actions of ZEN conjugates on CYP2C9 and CYP3A4 enzymes were examined employing CypExpress Cytochrome P450 human kits. , Briefly, incubates (200 μL) contained the substrate (5 μM; diclofenac for CYP2C9 and testosterone for CYP3A4), the CypExpress reagent (6 mg/mL of CYP2C9 kit or 15 mg/mL of CYP3A4 kit; also including the glucose-6-phosphate dehydrogenase enzyme), and the test compounds (each 20 μM) in 0.05 M potassium phosphate buffer (pH 7.5). CYP3A4 assay was supplemented with additional G6P and NADP^+ (both 400 μM). Enzyme assays were started with the addition of the enzyme. After 120 min (CYP2C9) or 180 min (CYP3A4) incubation at 700 rpm and 30 °C in a thermomixer, the reaction was stopped with 100 μL of ice-cold methanol. Then, the samples were centrifuged for 10 min at 14,000g and room temperature. The supernatants were gently removed and directly analyzed by HPLC (see Section ).
Diclofenac and 4′-hydroxydiclofenac (CYP2C9 assay) were quantified using the previously reported HPLC-UV assay, , without modification. Briefly, the isocratic elution, with 1.0 mL/min flow rate, was performed with orthophosphoric acid (6 mM) and acetonitrile (48:52 v/v %) mobile phase, applying a Security Guard (C8, 4.0 × 3.0 mm; Phenomenex, Torrance, CA) precolumn and a Mediterranea Sea8 (C8, 150 × 4.6 mm, 5 μm; Teknokroma, Barcelona, Spain) analytical column at room temperature (injected volume: 20 μL). Diclofenac and 4′-hydroxydiclofenac were detected at 275 nm.

In a further series the target is T2, OATP2B1 (Homo sapiens, UniProt O94956).
T2 construct: expressed in transfected cells; host or cells: A431
T2 sequence (O94956 1-709): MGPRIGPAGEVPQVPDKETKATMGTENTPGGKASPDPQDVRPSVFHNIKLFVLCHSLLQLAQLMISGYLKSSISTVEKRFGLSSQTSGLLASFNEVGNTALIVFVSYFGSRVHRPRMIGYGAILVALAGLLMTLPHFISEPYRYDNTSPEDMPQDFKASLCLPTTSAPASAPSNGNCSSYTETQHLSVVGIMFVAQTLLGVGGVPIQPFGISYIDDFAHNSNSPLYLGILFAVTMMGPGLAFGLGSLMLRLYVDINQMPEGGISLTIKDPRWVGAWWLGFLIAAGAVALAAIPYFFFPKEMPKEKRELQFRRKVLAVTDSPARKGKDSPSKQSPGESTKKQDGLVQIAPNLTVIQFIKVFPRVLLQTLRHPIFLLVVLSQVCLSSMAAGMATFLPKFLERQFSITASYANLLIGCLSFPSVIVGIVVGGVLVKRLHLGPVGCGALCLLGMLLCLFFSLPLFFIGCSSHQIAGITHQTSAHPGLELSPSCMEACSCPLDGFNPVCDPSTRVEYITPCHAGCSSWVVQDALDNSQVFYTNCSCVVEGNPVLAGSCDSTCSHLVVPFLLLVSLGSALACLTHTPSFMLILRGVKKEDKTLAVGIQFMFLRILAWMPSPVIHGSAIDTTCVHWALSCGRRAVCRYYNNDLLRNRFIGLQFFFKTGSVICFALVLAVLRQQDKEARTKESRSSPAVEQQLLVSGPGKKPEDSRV
The experiment in a line: OATP2B1-mediated pyranine uptake in overexpressing A431 cells. The series is classed as cell-based. As to the method: The human epidermoid carcinoma cell (A431) overexpressing OATP1A2, OATP1B1, OATP1B3, or OATP2B1 transporters and their mock control cells were generated previously as described. , Cell culture was maintained in DMEM supplemented with 10% fetal bovine serum, 2 mM L-glutamine, 100 units/mL penicillin, and 100 μg/mL streptomycin at 37 °C and 5% CO2.
The inhibitory effects of mycotoxins (Z14S and Z14GA) were examined using indirect fluorescence assays, where pyranine and SR101 were used as fluorescent substrates. , A431 cells overexpressing OATP1A2, OATP1B1/3, or OATP2B1 and their mock-transfected controls were seeded at a density of 8 × 10^4 cells/well onto 96-well plates and incubated for 18–22 h prior to transport measurements. The next day, plated cells were washed three times with 200 μL of PBS (phosphate-buffered saline, pH 7.4) and preincubated with 50 μL of transport buffer (pH 5.5; 125 mM NaCl, 4.8 mM KCl, 1.2 mM CaCl2, 1.2 mM KH2PO4, 12 mM MgSO4, 25 mM MES, and 5.6 mM glucose) with or without increasing concentrations of the mycotoxins tested (0.001–20 μM) for 5 min at 37 °C. The transport inhibition measurements were initiated by adding 50 μL of transport buffer containing the proper fluorescent substrate SR101 (0.5 μM, OATP1A2) or pyranine (10 μM for OATP1B1 or 20 μM for OATP1B3 and OATP2B1). After 10 min (OATP1A2), 15 min (OATP1B1 and OATP2B1), or 30 min (OATP1B3) incubation, the transport was terminated by washing the cells three times with ice-cold PBS. Regarding the individual OATP assays, we applied different incubation times to keep the substrate uptake in the linear range, , avoiding substrate depletion or saturation effects, as it is indispensable for the accurate assessment. Using an Enspire plate reader (PerkinElmer, Waltham, MA), the fluorescence was measured at excitation/emission wavelengths of 460/510 nm (pyranine) or 586/605 nm (SR101).
OATP-mediated transport was obtained by subtracting the activity of the mock control cells from the activity of the OATP-expressing cells. The transport activity (%) of the OATPs was calculated by comparing the fluorescence signal obtained in the absence of the compounds tested (set to 100%).

Molecules are shown by their SMILES. Like-named read-outs stand apart in the source and are kept apart here.

T1 sequence (P11712 whole entry): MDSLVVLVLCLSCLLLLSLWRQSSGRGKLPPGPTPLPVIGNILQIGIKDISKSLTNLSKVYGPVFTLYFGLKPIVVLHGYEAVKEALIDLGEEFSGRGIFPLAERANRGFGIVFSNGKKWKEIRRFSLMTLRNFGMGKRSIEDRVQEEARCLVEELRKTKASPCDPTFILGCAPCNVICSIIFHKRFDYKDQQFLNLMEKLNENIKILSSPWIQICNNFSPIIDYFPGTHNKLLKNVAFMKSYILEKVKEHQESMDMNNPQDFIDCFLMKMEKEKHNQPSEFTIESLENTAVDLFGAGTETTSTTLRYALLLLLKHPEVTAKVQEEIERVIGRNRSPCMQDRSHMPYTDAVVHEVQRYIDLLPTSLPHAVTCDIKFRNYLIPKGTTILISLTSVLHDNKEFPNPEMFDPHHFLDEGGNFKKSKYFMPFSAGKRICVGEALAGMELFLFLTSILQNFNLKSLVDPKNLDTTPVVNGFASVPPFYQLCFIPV

A word on the inhibition: it is the percentage by which the read-out fell short of the control. The term IC50 denotes the concentration that inhibits the measured activity by half. On to `C[C@H]1CCCC(=O)CCC/C=C/c2cc(OS(=O)(=O)O)cc(O)c2C(=O)O1` [Z14S, zearalenone-14-sulfate], for which the inhibition at 120 min, 20 μM on CYP2C9 (human, pH 7.5, each 20 μM, read-out: inhibition of CYP2C9 (decrease in metabolite formation)) is ~45%. In addition, the midpoint of inhibition on OATP2B1, the IC50, lay at 340 nM. For the same compound, the “effect on OATP2B1-mediated dye uptake” value at OATP2B1 (5 μM, pyranine substrate) is “completely abolished”. Moreover, the “decrease in OATP2B1 transport activity” value at OATP2B1 (20 μM, pyranine substrate, A431 cells) is reported as 80–100%. Further, the “stronger inhibition on OATP2B1 compared to ZEN” value at OATP2B1 (ratio of IC50 values vs ZEN) is listed as “approximately 7 fold”.

Consider `C[C@H]1CCCC(=O)CCC/C=C/c2cc(O[C@@H]3O[C@H](C(=O)O)[C@@H](O)[C@H](O)[C@H]3O)cc(O)c2C(=O)O1` [Z14GA, Zearalenone-14-glucuronide], for which, at CYP2C9 (each 20 μM), the “inhibition of CYP2C9 (decrease in metabolite formation)” value is “no effects”. In addition, at OATP2B1 (pyranine 20 μM, 15 min, A431 cells, read-out: IC50 for OATP2B1), the half-maximal inhibitory concentration (IC50) worked out at 1100 nM.
